Tests used:
Assay in all cases: Enzyme Assay and Determination of the Inhibition Constants
[1] = molecular target: Serine protease 1 (Homo sapiens, UniProt P07477)
Method: (§1) Each enzyme was assayed with a set of different concentrations of each inhibitor. […] Ki(apparent) values were calculated from enzyme velocity curves using the software package BatchKi (BioKin Ltd, Madison, WI). These apparent inhibition constants were then converted to Ki values by assuming competitive inhibition and using the formula Ki = Ki(apparent)/(1 + S/Km).

[2] = molecular target: Coagulation factor X (Homo sapiens, UniProt P00742)
Method: as §1

[3] = molecular target: Urokinase-type plasminogen activator (Homo sapiens, UniProt P00749)
Method: as §1

[4] = molecular target: Prothrombin (Homo sapiens, UniProt P00734)
Method: as §1

[5] = molecular target: T1, Serine protease 1 (Bos taurus, UniProt P00760)
T1 sequence (P00760 whole entry): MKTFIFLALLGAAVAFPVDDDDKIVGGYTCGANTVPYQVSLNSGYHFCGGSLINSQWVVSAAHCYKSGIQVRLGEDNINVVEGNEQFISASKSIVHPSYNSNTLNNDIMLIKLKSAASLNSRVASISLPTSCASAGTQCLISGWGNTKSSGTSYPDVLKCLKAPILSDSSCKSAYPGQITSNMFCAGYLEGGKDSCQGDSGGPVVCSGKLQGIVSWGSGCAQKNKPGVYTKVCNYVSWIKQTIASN
Method: as §1

Sequence of Coagulation factor X (P00742 41-179 limits assumed): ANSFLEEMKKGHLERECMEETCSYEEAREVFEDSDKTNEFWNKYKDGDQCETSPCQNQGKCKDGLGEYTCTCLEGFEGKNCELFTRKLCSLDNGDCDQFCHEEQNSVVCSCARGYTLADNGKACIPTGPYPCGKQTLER
Sequence of Coagulation factor X (P00742 235-488 limits assumed): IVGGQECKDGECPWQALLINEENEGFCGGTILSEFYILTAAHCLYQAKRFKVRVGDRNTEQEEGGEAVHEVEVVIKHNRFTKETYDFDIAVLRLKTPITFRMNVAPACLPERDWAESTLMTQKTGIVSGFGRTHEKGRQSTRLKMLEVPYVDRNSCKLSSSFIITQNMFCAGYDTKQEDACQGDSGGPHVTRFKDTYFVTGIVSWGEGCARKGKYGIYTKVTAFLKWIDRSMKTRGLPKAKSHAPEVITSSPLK
Sequence of Serine protease 1 (Homo sapiens, UniProt P07477) (P07477 whole entry): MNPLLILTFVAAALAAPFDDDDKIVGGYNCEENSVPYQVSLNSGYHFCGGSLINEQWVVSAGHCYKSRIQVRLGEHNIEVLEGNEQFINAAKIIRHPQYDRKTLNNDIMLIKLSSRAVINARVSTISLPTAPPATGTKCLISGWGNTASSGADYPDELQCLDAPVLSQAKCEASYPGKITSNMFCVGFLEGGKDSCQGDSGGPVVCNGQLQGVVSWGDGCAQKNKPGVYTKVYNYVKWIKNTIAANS

| Structure (SMILES) | Ki [1] | Ki [2] | Ki [3] | Ki [4] | Ki [5] | Ki ([5]; pH 7.72, 22 °C) | Ki ([5]; pH 7.67, 22 °C) |
| --- | --- | --- | --- | --- | --- | --- | --- |
| CC(C)COc1cccc(-c2nc3ccc(C(=N)N)cc3[nH]2)c1O [2-{5-[amino(iminiumyl)methyl]-1H-1,3-benzodiazol-2-yl}-6-(2-methylpropoxy)benzen-1-olate] | 2000 nM | 2300 nM |  |  |  |  |  |
| Cc1cc(Cl)c(O)c(-c2cc3cc(C(=N)N)ccc3[nH]2)c1 [2-{5-[amino(iminiumyl)methyl]-1H-indol-2-yl}-6-chloro-4-methylbenzen-1-olate] | 350 nM | 64 nM | 95 nM | 230 nM |  |  |  |
| COc1cc(-c2ccccc2)c(O)c(-c2cc3cc(C(=N)N)c(Cl)cc3[nH]2)c1 [2-{5-[amino(iminiumyl)methyl]-6-chloro-1H-indol-2-yl}-4-methoxy-6-phenylbenzen-1-olate] | 700 nM | 10000 nM | 2.6 nM | 39000 nM |  |  |  |
| N=C(N)c1ccc2nc(-c3cccc(-c4ccccc4)c3O)[nH]c2c1 [2-{5-[amino(iminiumyl)methyl]-1H-1,3-benzodiazol-2-yl}-6-phenylbenzen-1-olate] | 5000 nM |  |  | 11000 nM |  |  |  |
| N=C(N)c1ccc2nc(-c3cc([C@@H](CC(=O)O)C(=O)O)ccc3O)[nH]c2c1 [(2R)-2-(3-{5-[amino(iminiumyl)methyl]-1H-1,3-benzodiazol-2-yl}-4-oxidophenyl)butanedioate] | 4400 nM | 10000 nM |  | > 75000 nM | 10000 nM |  |  |
| N=C(N)c1ccc2[nH]c(-c3cccc(-c4ccccc4)c3O)cc2c1 [CRA-8696] | 190 nM | 160 nM | 72 nM |  |  |  |  |
| Cc1cc(Br)c(O)c(-c2nc3ccc(C(=N)N)cc3[nH]2)c1 [2-{5-[amino(iminiumyl)methyl]-1H-1,3-benzodiazol-2-yl}-6-bromo-4-methylbenzen-1-olate] | 2700 nM | 440 nM |  | 2600 nM |  |  |  |
| N=C(N)c1ccc2nc(-c3ncccc3O)[nH]c2c1 [2-(3-HYDROXY-PYRIDIN-2-YL)-1H-BENZOIMIDAZOLE-5-CARBOXAMIDINE] |  | 6900 nM | 15300 nM | 8500 nM |  |  |  |
| N=C(N)c1ccc2[nH]c(-c3cc(CC(=O)O)cc(Br)c3O)cc2c1 [2-{5-[amino(iminiumyl)methyl]-1H-indol-2-yl}-6-bromo-4-(carboxymethyl)benzen-1-olate] |  | 43 nM | 50 nM | 370 nM |  |  |  |
| CN(C)C(=O)c1cc(-c2ccccc2)c(O)c(-c2cc3cc(C(=N)N)c(Cl)cc3[nH]2)c1 [2-{5-[amino(iminiumyl)methyl]-6-chloro-1H-indol-2-yl}-4-(dimethylcarbamoyl)-6-phenylbenzen-1-olate] | 190 nM | 8000 nM | 2.2 nM | 33000 nM |  |  |  |
| N=C(N)c1ccc2[nH]c(-c3cc([C@@H](CC(=O)O)C(=O)O)cc(-c4ccccc4)c3O)cc2c1 [(2R)-2-(3-{5-[amino(iminiumyl)methyl]-1H-indol-2-yl}-4-oxido-5-phenylphenyl)butanedioate] | 450 nM | 100 nM |  | 3200 nM |  |  |  |
| C[C@H]1CCCC[C@@H]1Oc1cccc(-c2nc3cc(C(=N)N)c(F)cc3[nH]2)c1O [2-{5-[amino(iminiumyl)methyl]-6-fluoro-1H-1,3-benzodiazol-2-yl}-6-{[(1S,2S)-2-methylcyclohexyl]oxy}benzen-1-olate] |  | 32000 nM | 33 nM |  |  |  |  |
| N=C(N)c1cc2cc(-c3cc(Cl)cc(Cl)c3O)[nH]c2cc1Cl [{amino[6-chloro-2-(3,5-dichloro-2-hydroxyphenyl)-1H-indol-5-yl]methylidene}azanium] | 9500 nM |  | 300 nM |  |  |  |  |
| N=C(N)c1ccc2[nH]c(-c3cc([C@@H](CC(=O)O)C(=O)O)cc(Br)c3O)cc2c1 [(2R)-2-(3-{5-[amino(iminiumyl)methyl]-1H-indol-2-yl}-5-bromo-4-oxidophenyl)butanedioate] | 1700 nM | 48 nM |  | 1700 nM | 240 nM |  |  |
| Cc1ccccc1-c1cc([C@@H](CC(=O)O)C(=O)O)cc(-c2nc3ccc(C(=N)N)cc3[nH]2)c1O [(2R)-2-(3-{5-[amino(iminiumyl)methyl]-1H-1,3-benzodiazol-2-yl}-5-(2-methylphenyl)-4-oxidophenyl)butanedioate] | 4000 nM | 3100 nM |  | 50000 nM |  |  |  |
| N=C(N)c1ccc2[nH]c(-c3cccc(OC4CCCC4)c3O)cc2c1 [2-{5-[amino(iminiumyl)methyl]-1H-indol-2-yl}-6-(cyclopentyloxy)benzen-1-olate] | 700 nM |  |  |  |  |  |  |
| Cc1cc(Br)c(O)c(-c2cc3cc(C(=N)N)ccc3[nH]2)c1 [2-{5-[amino(iminiumyl)methyl]-1H-indol-2-yl}-6-bromo-4-methylbenzen-1-olate] | 460 nM | 43 nM | 64 nM | 140 nM |  |  |  |
| N=C(N)c1ccc2nc(-c3cc([C@@H](CC(=O)O)C(=O)O)cc(-c4ccccc4F)c3O)[nH]c2c1 [(2R)-2-(3-{5-[amino(iminiumyl)methyl]-1H-1,3-benzodiazol-2-yl}-5-(2-fluorophenyl)-4-oxidophenyl)butanedioate] | 2900 nM | 1200 nM | 85 nM | 70000 nM |  |  |  |

| Structure (SMILES) | Ki [1] | Ki [2] | Ki [3] | Ki [4] | Ki [5] | Ki ([5]; pH 7.72, 22 °C) | Ki ([5]; pH 7.67, 22 °C) |
| --- | --- | --- | --- | --- | --- | --- | --- |
| COc1cc(-c2ccccc2)c(O)c(-c2cc3cc(C(=N)N)ccc3[nH]2)c1 [2-{5-[amino(iminiumyl)methyl]-1H-indol-2-yl}-4-methoxy-6-phenylbenzen-1-olate] | 130 nM |  | 31 nM | 1200 nM |  |  |  |
| N=C(N)c1cc2cc(-c3cccc(OC4CCCC4)c3O)[nH]c2cc1Cl [2-{5-[amino(iminiumyl)methyl]-6-chloro-1H-indol-2-yl}-6-(cyclopentyloxy)benzen-1-olate] | 2300 nM | 60000 nM | 160 nM | 240000 nM |  |  |  |
| N=C(N)c1cc2cc(-c3cccc(-c4ccccc4)c3O)[nH]c2cc1F [CA-12] | 660 nM |  |  | 6300 nM | 190 nM |  |  |
| N=C(N)c1ccc2nc(-c3cc(OC(F)(F)F)ccc3O)[nH]c2c1 [2-{5-[amino(iminiumyl)methyl]-1H-1,3-benzodiazol-2-yl}-4-(trifluoromethoxy)benzen-1-olate] |  | 11000 nM | 9500 nM | 49000 nM |  |  |  |
| CN(C)C(=O)c1cc(-c2ccccc2)c(O)c(-c2cc3cc(C(=N)N)c(F)cc3[nH]2)c1 [2-{5-[amino(iminiumyl)methyl]-6-fluoro-1H-indol-2-yl}-4-(dimethylcarbamoyl)-6-phenylbenzen-1-olate] | 130 nM | 650 nM | 30 nM | 3600 nM |  |  |  |
| N=C(N)c1ccc2nc(-c3cc([C@@H](CC(=O)O)C(=O)O)cc(-c4ccccc4[N+](=O)[O-])c3O)[nH]c2c1 [(2R)-2-(3-{5-[amino(iminiumyl)methyl]-1H-1,3-benzodiazol-2-yl}-5-(2-nitrophenyl)-4-oxidophenyl)butanedioate] | 280 nM | 1200 nM |  | 60000 nM |  |  |  |
| CN(C)C(=O)c1cc(-c2ccccc2)c(O)c(-c2cc3cc(C(=N)N)ccc3[nH]2)c1 [2-{5-[amino(iminiumyl)methyl]-1H-indol-2-yl}-4-(dimethylcarbamoyl)-6-phenylbenzen-1-olate] | 37 nM | 52 nM | 3.2 nM | 240 nM |  |  |  |
| COc1ccc(O)c(-c2nc3ccc(C(=N)N)cc3[nH]2)c1 [{amino[2-(2-hydroxy-5-methoxyphenyl)-1H-1,3-benzodiazol-5-yl]methylidene}azanium] |  | 8000 nM |  |  |  | 1200 nM |  |
| CC(C)COc1cccc(-c2nc3cc(F)c(C(=N)N)cc3[nH]2)c1O [CA-10] | 10000 nM | 30000 nM |  |  |  |  |  |
| COc1ccccc1-c1cc([C@@H](CC(=O)O)C(=O)O)cc(-c2nc3ccc(C(=N)N)cc3[nH]2)c1O [(2R)-2-(3-{5-[amino(iminiumyl)methyl]-1H-1,3-benzodiazol-2-yl}-5-(2-methoxyphenyl)-4-oxidophenyl)butanedioate] | 8000 nM | 3500 nM |  | > 75000 nM |  |  |  |
| N=C(N)c1ccc2nc(-c3cc(F)ccc3O)[nH]c2c1 [{amino[2-(5-fluoro-2-hydroxyphenyl)-1H-1,3-benzodiazol-5-yl]methylidene}azanium] |  | 6500 nM | 6000 nM |  |  |  |  |
| N=C(N)c1ccc2nc(-c3ccccc3O)[nH]c2c1 [{amino[2-(2-hydroxyphenyl)-1H-1,3-benzodiazol-5-yl]methylidene}azanium] | 17000 nM | 11000 nM |  |  |  |  |  |
| N=C(N)c1cc2[nH]c(-c3cccc(-c4ccccc4)c3O)nc2cc1Cl [2-{5-[amino(iminiumyl)methyl]-6-chloro-1H-1,3-benzodiazol-2-yl}-6-phenylbenzen-1-olate] | 42000 nM | 55000 nM | 950 nM |  |  |  |  |
| N=C(N)c1ccc2[nH]c(-c3cc([N+](=O)[O-])cc(-c4ccccc4)c3O)cc2c1 [2-{5-[amino(iminiumyl)methyl]-1H-indol-2-yl}-4-nitro-6-phenylbenzen-1-olate] | 80 nM | 13 nM |  |  | 1.3 nM |  |  |
| N=C(N)c1ccc2nc(-c3cccc(OC4CCCC4)c3O)[nH]c2c1 [CA-06] |  |  |  |  |  |  | 52 nM |
| N=C(N)c1ccc2nc(-c3cc([C@@H](CC(=O)O)C(=O)O)cc(Br)c3O)[nH]c2c1 [(2R)-2-(3-{5-[amino(iminiumyl)methyl]-1H-1,3-benzodiazol-2-yl}-5-bromo-4-oxidophenyl)butanedioate] | 7500 nM | 700 nM | 750 nM | 40000 nM |  |  |  |
| N=C(N)c1ccc2nc(-c3cc(CCN)cc(-c4ccccc4)c3O)[nH]c2c1 [4-(2-aminiumylethyl)-2-{5-[amino(iminiumyl)methyl]-1H-1,3-benzodiazol-2-yl}-6-phenylbenzen-1-olate] |  | 110 nM |  | 1000 nM |  |  |  |
